From patent US9994552B2, “Compositions useful for treating disorders related to kit” (BLUEPRINT MEDICINES CORPORATION, priority 2013, dated 2018)

Columns and labels:
D816V Kit = D816V Kit (Homo sapiens (Human), UniProt P10721, D816V); assay: Kit D816V assay at Km (Caliper electrophoretic mobility shift); type: biochemical; conditions: for IC50: D816V Kit 0.5 nM, 15 uM ATP (Km), 1 uM Srctide, 25 C, 90 minutes, read-out: INH-KITD816V ENZ-KM IC50 (nM) (Num); for times more potent against the D816V mutant than against the wild-type Kit: D816V Kit versus wild-type Kit, enzyme assays at Km
Experimental: (§1) In order to assess the activity of chemical compounds against the relevant kinase of interest, the Caliper LifeSciences electrophoretic mobility shift technology platform is used. Fluorescently labeled substrate peptide is incubated in the presence of kinase and ATP so that a […] proportion of the peptide is phosphorylated. At the end of the reaction, the mix of phosphorylated (product) and non-phosphorylated (substrate) peptides are passed through the microfluidic system of the Caliper EZ Reader 2, under an applied potential difference. The presence of the phosphate group on the product peptide provides a difference in mass and charge between those of the substrate peptide, resulting in a separation of the substrate and product pools in the sample. As the pools pass a LEDS within the instrument, these pools are detected and resolved as separate peaks. The ratio between these peaks therefore reflects the activity of the chemical matter at that concentration in that well, under those conditions.
(§2) The reaction was stopped by the addition of 70 ul of Stop buffer (100 mM HEPES pH 7.5, 0.015% Brij 35, 35 mM EDTA and 0.2% of Coating Reagent 3 (Caliper Lifesciences)). The plate was then read on a Caliper EZReader 2 (protocol settings: −1.9 psi, upstream voltage −700, downstream voltage −3000, post sample sip 35 s).

wild type Kit = wild type Kit (Homo sapiens (Human), UniProt P10721); assay: Kit wild type assay at Km (Caliper electrophoretic mobility shift); type: biochemical; conditions: wild type Kit 2 nM, 400 uM ATP (Km), 1 uM Srctide, 25 C, 90 minutes; read-out: INH-KITWT ENZ-KM IC50 (nM) (Num)
Experimental: as §1, §2

Sequence of wild type Kit (P10721 26-976): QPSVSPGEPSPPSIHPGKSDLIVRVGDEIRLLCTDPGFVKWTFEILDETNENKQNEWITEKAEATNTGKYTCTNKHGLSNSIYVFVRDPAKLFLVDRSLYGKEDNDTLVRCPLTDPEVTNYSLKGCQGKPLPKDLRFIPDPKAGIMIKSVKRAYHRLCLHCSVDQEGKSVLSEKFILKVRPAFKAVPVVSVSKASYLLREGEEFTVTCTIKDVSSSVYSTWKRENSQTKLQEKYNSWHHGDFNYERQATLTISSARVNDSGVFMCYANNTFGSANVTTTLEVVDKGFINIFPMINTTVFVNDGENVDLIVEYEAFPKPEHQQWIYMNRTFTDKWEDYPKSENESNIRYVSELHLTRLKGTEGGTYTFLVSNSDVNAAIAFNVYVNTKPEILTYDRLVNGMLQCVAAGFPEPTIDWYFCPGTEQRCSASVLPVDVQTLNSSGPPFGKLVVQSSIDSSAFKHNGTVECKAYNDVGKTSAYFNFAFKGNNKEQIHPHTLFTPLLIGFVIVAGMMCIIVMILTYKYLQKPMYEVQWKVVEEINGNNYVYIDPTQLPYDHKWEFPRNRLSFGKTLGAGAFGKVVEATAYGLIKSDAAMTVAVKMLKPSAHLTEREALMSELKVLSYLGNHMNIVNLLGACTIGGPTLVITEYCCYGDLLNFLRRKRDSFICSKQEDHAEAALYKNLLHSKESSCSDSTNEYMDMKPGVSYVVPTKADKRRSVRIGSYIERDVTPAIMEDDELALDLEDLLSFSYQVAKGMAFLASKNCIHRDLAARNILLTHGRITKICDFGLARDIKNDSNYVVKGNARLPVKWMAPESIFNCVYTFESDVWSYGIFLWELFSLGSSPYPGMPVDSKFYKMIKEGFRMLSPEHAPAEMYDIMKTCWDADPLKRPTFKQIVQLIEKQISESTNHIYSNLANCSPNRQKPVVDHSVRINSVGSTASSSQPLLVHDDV
Sequence of D816V Kit (P10721 26-976 D816V): as the sequence (P10721 26-976) above, with D791V counted along it

Structure (SMILES)	IC50 (D816V Kit) [nM]	times more potent against the D816V mutant than against the wild-type Kit (D816V Kit)	IC50 (wild type Kit) [nM]
COc1cc2ncnc(N3CCN(c4ncc(OCC5CCCC5)cn4)CC3)c2cc1OC [Compound 18]	> 100	at least 100 times	> 1000
COc1cc2ncnc(N3CCN(c4ncc(Nc5ccccn5)cn4)CC3)c2cc1OC [Compound 15]	10 to 100	–	100 to 1000
COc1cc2ncnc(N3CCN(c4ncc(Cc5ccccc5)c(=O)[nH]4)CC3)c2cc1OC[C@H]1CNCCO1 [Compound 120]	< 1	–	< 10
COc1ccc(Cc2cnc(N3CCN(c4ncnc5cc(OC)c(OC)cc45)CC3)nc2)cc1 [Compound 58]	1.01 to 10	–	11 to 100
COc1cc2ncnc(N3CCN(c4ncc(Cc5ccccc5)cn4)CC3)c2cc1OCC1CCCN(C)C1 (stereo not shown) [Compound 114]	< 1	–	11 to 100
COc1cc2ncnc(N3CCN(c4ncc(Oc5ccc(F)cc5)cn4)CC3)c2cc1OCC1CCN(C)CC1 [Compound 133]	1.01 to 10	–	11 to 100
COc1cc2ncnc(N3CCN(c4ncc(OCc5ccccc5C)cn4)CC3)c2cc1OC [Compound 65]	10 to 100	–	> 1000
COc1cc2ncnc(N3CCN(c4ncc(OCc5ccc(C(C)(C)C)cc5)cn4)CC3)c2cc1OC [Compound 94]	> 100	–	> 1000
COc1cc2ncnc(N3CC4CCC(C3)N4c3ncc(Cc4ccccc4)cn3)c2cc1OCC1CNCCO1 (stereo not shown) [Compound 121]	< 1	–	11 to 100
COc1cc2ncnc(N3CCN(c4ncc(Nc5cccc(C)c5)cn4)CC3)c2cc1OC [Compound 33]	10 to 100	–	100 to 1000
COc1cc2ncnc(N3CCN(c4ncc(S(=O)(=O)c5ccccc5)cn4)CC3)c2cc1OC [Compound 78]	10 to 100	–	> 1000
COc1cc2ncnc(N3CCN(c4ncc(Nc5ccccc5C)cn4)CC3)c2cc1OC [Compound 32]	10 to 100	–	100 to 1000
COc1cc2ncnc(N3CCN(c4ncc(OCc5cccc(C)c5)cn4)CC3)c2cc1OC [Compound 61]	10 to 100	–	100 to 1000
CN1CCC(COc2ccc3ncnc(N4CCN(c5ncc(Cc6ccccc6)c(N)n5)CC4)c3c2)CC1 [Compound 95]	1.01 to 10	–	11 to 100
COc1cc2ncnc(N3CCN(c4ncc(Nc5ccc(Cl)cc5)cn4)CC3)c2cc1OC [Compound 70]	1.01 to 10	–	100 to 1000
COc1cc2ncnc(N3CCN(c4ncc(Br)c(OC)n4)CC3)c2cc1OC [Compound 41]	> 100	less than 5 times	> 1000
COc1cc2ncnc(N3CCN(c4ncc(NCc5ccccc5C)cn4)CC3)c2cc1OC [Compound 54]	10 to 100	–	100 to 1000
COc1cc2ncnc(N3CCN(c4ncc(OC(C)c5ccccc5)cn4)CC3)c2cc1OC (stereo not shown) [Compound 63]	10 to 100	–	100 to 1000
COc1cc2ncnc(N3CCN(c4ncc(Cc5ccccc5)c(N)n4)CC3)c2cc1OC[C@@H]1CCCN(C)C1 [Compound 124]	< 1	–	< 10
COc1cc2ncnc(N3CCN(c4ncc(Cc5ccccc5)cn4)CC3)c2cc1OCCN1CCNCC1 [Compound 116]	1.01 to 10	–	11 to 100
COc1cc2ncnc(N3CCN(c4ncc(O[C@@H](C)c5ccccc5)cn4)CC3)c2cc1OC [Compound 64]	10 to 100	–	> 1000
COc1cc2ncnc(N3CCN(c4ncc(Cc5ccccc5)cn4)C[C@@H]3C)c2cc1OC [Compound 27]	> 100	–	> 1000

Structure (SMILES)	IC50 (D816V Kit) [nM]	times more potent against the D816V mutant than against the wild-type Kit (D816V Kit)	IC50 (wild type Kit) [nM]
COc1ccc2c(N3CCN(c4ncc(OCc5ccccc5)cn4)CC3)ncnc2c1 [Compound 8]	10 to 100	–	> 1000
COc1cc2ncnc(N3CCN(c4ncc(Cc5ccc(C(C)(C)C)cc5)cn4)CC3)c2cc1OC [Compound 81]	10 to 100	–	> 1000
COc1cc2ncnc(N3CCN(c4ncc(Cc5cccc(C(N)=O)c5)cn4)CC3)c2cc1OC [Compound 75]	1.01 to 10	–	100 to 1000
COc1cc2ncnc(N3CCN(c4ncc(Sc5ccc(F)cc5)cn4)CC3)c2cc1OCC1CCN(C)CC1 [Compound 140]	1.01 to 10	–	11 to 100
COc1cc2ncnc(N3CCN(c4ncc(Cc5ccccc5)cn4)CC3)c2cc1OC1CCNC1 (stereo not shown) [Compound 80]	1.01 to 10	–	11 to 100
COc1cc2ncnc(N3CCN(c4ncc(Sc5ccccc5)cn4)CC3)c2cc1OC [Compound 40]	1.01 to 10	–	100 to 1000
COc1cc2ncnc(N3CCN(c4ncc(Cc5ccccc5)cn4)CC3)c2cc1OC1CCNCC1 [Compound 91]	1.01 to 10	–	11 to 100
CCOc1cc2ncnc(N3CCN(c4ncc(Cc5ccccc5)cn4)CC3)c2cc1OCC1CCN(C)CC1 [Compound 122]	< 1	–	< 10
COc1cc2ncnc(N3CCN(c4ncc(-c5ccccc5)cn4)CC3)c2cc1OC [Compound 9]	> 100	–	> 1000
c1ccc(Cc2cnc(N3CCN(c4ncnc5c4CN(CC4CCNCC4)C5)CC3)nc2)cc1 [Compound 50]	> 100	less than 5 times	> 1000
COc1cc2ncnc(N3CCN(c4ncc(NC(=O)Cc5ccccc5)cn4)CC3)c2cc1OC [Compound 76]	10 to 100	–	100 to 1000
COc1cc2ncnc(N3CCN(c4ncc(Cc5ccccc5)cn4)CC3)c2cc1C(N)=O [Compound 20]	10 to 100	at least 100 times	> 1000
COc1cc2ncnc(N3CCN(c4ncc(Cc5ccccc5)cn4)C(=O)C3)c2cc1OC [Compound 21]	> 100	less than 5 times	> 1000
COc1cc2ncnc(N3CCN(c4ncc(Nc5cccnc5)cn4)CC3)c2cc1OC [Compound 16]	10 to 100	–	100 to 1000
COc1cc2ncnc(N3CCN(c4ncc(Cc5ccccc5)cn4)CC3)c2cc1OCC1CCN(CCO)CC1 [Compound 139]	1.01 to 10	–	11 to 100
COc1cc2ncnc(N3CCN(c4ncc(Cc5ccccc5)cn4)CC3)c2cc1OCC1CCN(C)C1 (stereo not shown) [Compound 96]	< 1	–	11 to 100
COc1cc2ncnc(N3CCN(c4ncc(OCc5ccc(F)cc5)cn4)CC3)c2cc1OC [Compound 69]	10 to 100	–	100 to 1000
COc1cc2ncnc(N3CCN(c4ncc(Cc5ccc(F)cc5)cn4)CC3)c2cc1OC [Compound 38, 4-(4-(5-(4-fluorobenzyl)pyrimidin-2-yl)piperazin-1-yl)-6,7-dimethoxyquinazoline]	1.01 to 10	–	11 to 100
COc1cc2ncnc(N3CCN(c4ncc(Cc5ccccc5)c(N)n4)CC3)c2cc1OC [Compound 29]	< 1	–	< 10
COc1cc2ncnc(N3CCN(c4ncc(OCc5ccc(C)cc5)cn4)CC3)c2cc1OC [Compound 62]	10 to 100	at least 100 times	> 1000
COc1cc2ncnc(N3CCN(c4ncc(Nc5ccc(C(C)(C)C)cc5)cn4)CC3)c2cc1OC [Compound 82]	> 100	–	> 1000
COc1cc2ncnc(N3CCN(c4ncc(Cc5ccccc5)cn4)CC3)c2cc1OCC1CCNC1 (stereo not shown) [Compound 89]	< 1	–	11 to 100
